Source: patent US20050282743A1, “Molecular interactions in cells” (Arbor Vita Corporation, priority 2001, published 2005)
Peptide text beside a SMILES is read from it. * marks the point of attachment. Biotin = O=C1N[C@H]2[C@H](CS[C@H]2CCCCC(=O)*)N1

What was measured:
Format in all cases: binding
[1] = molecular target: T1, PDZ protein (GST-PDZ fusion) (Homo sapiens, UniProt O14907); experiment: G' assay (10 uM PL peptide), results of TABLE 7 and TABLE 12; conditions: PDZ TIP1, PDZ Domain 1
T1 construct: made in house; host or cells: E. coli (DH5alpha, BL21 or JM109)
T1 sequence (O14907 1-124): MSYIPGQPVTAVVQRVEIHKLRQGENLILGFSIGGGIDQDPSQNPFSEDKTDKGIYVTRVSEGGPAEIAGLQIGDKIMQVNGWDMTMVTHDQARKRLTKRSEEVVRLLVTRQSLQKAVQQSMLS
Summary of the method: (§1)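 Biotinylated PL peptides at 10 uM (vs 20 uM in G^0 assay) bound to GST-PDZ fusions; PDZ protein at 5 ug/ml unless another concentration listed. Bound peptide read as A450 nm, classified 0–5 (0 = A450 0; 5 = A450 >4 repeated).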

[2] = molecular target: T2, PDZ protein (GST-PDZ fusion) (Homo sapiens, UniProt O15018); experiment: as above; conditions: PDZ AIPC, PDZ Domain 1; PL peptide 10 uM; Protein Optimal Conc 5
T2 construct: made in house; host or cells: E. coli (DH5alpha, BL21 or JM109)
Summary of the method: as §1

[3] = molecular target: T3, PDZ protein (GST-PDZ fusion) (Homo sapiens, UniProt P57105); experiment: as above; conditions: PDZ Outer Membrane, PDZ Domain 1
T3 construct: made in house; host or cells: E. coli (DH5alpha, BL21 or JM109)
T3 sequence (P57105 1-145): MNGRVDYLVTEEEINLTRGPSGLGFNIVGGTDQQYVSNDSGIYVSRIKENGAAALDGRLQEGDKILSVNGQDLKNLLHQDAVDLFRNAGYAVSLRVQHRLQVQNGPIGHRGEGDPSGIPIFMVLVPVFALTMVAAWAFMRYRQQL
Summary of the method: as §1

[4] = molecular target: T4, PDZ protein (GST-PDZ fusion) (Homo sapiens, UniProt P78352); experiment: as above
T4 construct: made in house; host or cells: E. coli (DH5alpha, BL21 or JM109)
Summary of the method: as §1

[5] = molecular target: T5, PDZ protein (GST-PDZ fusion) (Homo sapiens, UniProt Q12959); experiment: as above
T5 construct: made in house; host or cells: E. coli (DH5alpha, BL21 or JM109)
Summary of the method: as §1

[6] = molecular target: T6, PDZ protein (GST-PDZ fusion) (Homo sapiens, UniProt Q14160); experiment: as above
T6 construct: made in house; host or cells: E. coli (DH5alpha, BL21 or JM109)
Summary of the method: as §1

[7] = molecular target: T7, PDZ protein (GST-PDZ fusion) (Homo sapiens, UniProt Q15700); experiment: as above
T7 construct: made in house; host or cells: E. coli (DH5alpha, BL21 or JM109)
Summary of the method: as §1

[8] = molecular target: T8, PDZ protein (GST-PDZ fusion) (Homo sapiens, UniProt Q8NI35); experiment: as above; conditions: PDZ INADL
T8 construct: made in house; host or cells: E. coli (DH5alpha, BL21 or JM109)
Summary of the method: as §1

[9] = molecular target: T9, PDZ protein (GST-PDZ fusion) (Homo sapiens, UniProt Q9NZN5); experiment: as above; conditions: PDZ KIAA0382, PDZ Domain 1
T9 construct: made in house; host or cells: E. coli (DH5alpha, BL21 or JM109)
Summary of the method: as §1

[10] = molecular target: PDZ-domain polypeptide (GST/PDZ fusion protein); experiment: Apparent affinity (Kd) by titration of PL peptide in the G assay; conditions: PDZ FLJ 00011, PDZ Domain 1; read-out: Peptide Optimal Conc (Kd by titration of the PL peptide)
Summary of the method: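 A fixed concentration of GST/PDZ fusion protein, 5 ug/ml by default, was mixed in solution with increasing labeled PL peptide (e.g. 0.1 uM-1 mM). Reaction times ranged from 10 minutes to 2 days at 4-37° C. Complexes were separated from free peptide and detected via the label as in the G assay, apparent affinity coming from the saturating concentration.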

T8 sequence (Q8NI35 whole entry, the tested form may be a part): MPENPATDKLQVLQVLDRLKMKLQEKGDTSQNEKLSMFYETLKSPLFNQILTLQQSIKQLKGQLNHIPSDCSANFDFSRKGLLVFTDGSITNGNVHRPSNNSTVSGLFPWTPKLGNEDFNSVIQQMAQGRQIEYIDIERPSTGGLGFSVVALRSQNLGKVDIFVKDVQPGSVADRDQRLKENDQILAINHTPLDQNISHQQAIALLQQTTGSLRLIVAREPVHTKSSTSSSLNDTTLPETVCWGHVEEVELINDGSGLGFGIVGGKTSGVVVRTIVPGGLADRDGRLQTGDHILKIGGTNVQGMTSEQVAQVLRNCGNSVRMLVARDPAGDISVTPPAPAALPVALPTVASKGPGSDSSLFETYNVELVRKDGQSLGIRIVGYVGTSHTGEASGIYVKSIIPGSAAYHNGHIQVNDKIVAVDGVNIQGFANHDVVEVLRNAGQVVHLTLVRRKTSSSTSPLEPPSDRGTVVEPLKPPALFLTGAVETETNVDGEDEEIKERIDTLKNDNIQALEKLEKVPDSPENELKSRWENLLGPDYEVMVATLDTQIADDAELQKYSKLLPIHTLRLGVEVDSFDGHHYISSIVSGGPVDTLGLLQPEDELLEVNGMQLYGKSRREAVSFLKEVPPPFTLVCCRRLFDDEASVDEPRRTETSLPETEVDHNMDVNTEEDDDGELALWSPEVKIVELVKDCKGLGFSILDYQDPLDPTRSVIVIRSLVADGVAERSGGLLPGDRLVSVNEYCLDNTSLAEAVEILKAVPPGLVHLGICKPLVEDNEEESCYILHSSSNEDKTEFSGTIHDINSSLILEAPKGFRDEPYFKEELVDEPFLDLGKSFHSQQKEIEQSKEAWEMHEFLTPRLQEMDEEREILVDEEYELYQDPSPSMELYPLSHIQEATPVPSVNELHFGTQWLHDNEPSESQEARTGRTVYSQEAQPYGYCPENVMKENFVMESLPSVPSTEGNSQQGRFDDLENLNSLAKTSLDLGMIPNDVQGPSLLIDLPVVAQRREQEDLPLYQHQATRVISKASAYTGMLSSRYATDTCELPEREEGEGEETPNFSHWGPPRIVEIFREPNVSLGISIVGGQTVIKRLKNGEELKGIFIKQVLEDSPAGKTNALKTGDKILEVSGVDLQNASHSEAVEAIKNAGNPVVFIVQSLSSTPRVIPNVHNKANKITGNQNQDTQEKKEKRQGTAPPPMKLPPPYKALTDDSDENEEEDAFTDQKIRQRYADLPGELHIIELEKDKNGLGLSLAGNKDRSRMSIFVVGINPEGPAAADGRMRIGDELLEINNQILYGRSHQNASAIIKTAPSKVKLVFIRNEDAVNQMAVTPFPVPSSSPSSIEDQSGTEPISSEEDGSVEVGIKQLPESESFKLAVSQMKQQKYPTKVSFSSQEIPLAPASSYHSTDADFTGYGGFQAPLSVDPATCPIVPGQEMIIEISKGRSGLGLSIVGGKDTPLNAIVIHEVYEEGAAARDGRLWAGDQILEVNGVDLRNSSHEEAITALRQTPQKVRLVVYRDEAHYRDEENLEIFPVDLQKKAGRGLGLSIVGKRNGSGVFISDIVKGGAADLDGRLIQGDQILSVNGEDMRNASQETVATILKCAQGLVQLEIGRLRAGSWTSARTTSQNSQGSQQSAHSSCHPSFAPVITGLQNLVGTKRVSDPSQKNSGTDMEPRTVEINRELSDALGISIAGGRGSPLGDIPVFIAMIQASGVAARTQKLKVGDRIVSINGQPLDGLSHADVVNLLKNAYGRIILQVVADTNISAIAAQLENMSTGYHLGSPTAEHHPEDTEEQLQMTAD
T5 sequence (Q12959 whole entry, the tested form may be a part): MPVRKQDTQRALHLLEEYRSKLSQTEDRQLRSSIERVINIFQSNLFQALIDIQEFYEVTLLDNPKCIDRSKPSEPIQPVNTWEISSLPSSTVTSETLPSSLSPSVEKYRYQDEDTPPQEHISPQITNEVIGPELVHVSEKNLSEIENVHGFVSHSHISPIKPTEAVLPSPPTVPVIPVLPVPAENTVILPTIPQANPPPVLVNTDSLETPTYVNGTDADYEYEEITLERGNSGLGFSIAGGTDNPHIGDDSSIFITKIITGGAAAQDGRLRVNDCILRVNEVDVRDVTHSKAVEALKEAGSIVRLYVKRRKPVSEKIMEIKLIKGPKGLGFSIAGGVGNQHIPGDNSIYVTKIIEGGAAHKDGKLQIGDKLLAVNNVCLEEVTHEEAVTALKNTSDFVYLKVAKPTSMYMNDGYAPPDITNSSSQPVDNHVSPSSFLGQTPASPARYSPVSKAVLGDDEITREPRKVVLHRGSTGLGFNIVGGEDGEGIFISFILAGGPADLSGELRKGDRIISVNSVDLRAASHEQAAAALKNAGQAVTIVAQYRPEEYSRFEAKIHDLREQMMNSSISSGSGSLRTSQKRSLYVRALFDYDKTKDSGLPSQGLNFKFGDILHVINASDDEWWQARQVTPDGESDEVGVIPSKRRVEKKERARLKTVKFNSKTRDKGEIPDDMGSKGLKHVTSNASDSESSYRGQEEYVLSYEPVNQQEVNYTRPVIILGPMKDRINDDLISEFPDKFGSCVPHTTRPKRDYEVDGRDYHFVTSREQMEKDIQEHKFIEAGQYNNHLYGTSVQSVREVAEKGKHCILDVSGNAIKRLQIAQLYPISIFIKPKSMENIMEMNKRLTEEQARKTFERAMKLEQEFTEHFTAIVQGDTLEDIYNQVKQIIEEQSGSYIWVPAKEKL
T4 sequence (P78352 whole entry, the tested form may be a part): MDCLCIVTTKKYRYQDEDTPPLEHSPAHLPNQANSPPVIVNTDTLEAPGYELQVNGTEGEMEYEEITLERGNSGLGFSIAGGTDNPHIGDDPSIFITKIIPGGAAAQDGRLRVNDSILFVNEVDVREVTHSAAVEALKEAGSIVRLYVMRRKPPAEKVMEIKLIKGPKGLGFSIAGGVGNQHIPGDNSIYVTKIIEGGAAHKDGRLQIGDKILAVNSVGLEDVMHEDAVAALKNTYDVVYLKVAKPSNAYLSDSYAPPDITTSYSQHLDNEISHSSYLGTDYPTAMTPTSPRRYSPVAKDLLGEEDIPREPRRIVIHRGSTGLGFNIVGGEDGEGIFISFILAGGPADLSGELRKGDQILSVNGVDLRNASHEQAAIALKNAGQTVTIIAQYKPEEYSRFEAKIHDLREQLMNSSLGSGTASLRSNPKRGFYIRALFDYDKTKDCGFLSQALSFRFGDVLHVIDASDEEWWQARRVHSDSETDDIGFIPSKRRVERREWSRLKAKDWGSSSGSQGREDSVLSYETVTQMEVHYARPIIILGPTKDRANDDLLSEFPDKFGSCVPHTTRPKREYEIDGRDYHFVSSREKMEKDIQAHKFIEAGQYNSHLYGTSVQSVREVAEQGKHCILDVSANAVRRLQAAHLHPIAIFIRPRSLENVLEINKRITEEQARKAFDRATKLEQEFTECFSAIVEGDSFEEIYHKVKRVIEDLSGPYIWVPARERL
T6 sequence (Q14160 whole entry, the tested form may be a part): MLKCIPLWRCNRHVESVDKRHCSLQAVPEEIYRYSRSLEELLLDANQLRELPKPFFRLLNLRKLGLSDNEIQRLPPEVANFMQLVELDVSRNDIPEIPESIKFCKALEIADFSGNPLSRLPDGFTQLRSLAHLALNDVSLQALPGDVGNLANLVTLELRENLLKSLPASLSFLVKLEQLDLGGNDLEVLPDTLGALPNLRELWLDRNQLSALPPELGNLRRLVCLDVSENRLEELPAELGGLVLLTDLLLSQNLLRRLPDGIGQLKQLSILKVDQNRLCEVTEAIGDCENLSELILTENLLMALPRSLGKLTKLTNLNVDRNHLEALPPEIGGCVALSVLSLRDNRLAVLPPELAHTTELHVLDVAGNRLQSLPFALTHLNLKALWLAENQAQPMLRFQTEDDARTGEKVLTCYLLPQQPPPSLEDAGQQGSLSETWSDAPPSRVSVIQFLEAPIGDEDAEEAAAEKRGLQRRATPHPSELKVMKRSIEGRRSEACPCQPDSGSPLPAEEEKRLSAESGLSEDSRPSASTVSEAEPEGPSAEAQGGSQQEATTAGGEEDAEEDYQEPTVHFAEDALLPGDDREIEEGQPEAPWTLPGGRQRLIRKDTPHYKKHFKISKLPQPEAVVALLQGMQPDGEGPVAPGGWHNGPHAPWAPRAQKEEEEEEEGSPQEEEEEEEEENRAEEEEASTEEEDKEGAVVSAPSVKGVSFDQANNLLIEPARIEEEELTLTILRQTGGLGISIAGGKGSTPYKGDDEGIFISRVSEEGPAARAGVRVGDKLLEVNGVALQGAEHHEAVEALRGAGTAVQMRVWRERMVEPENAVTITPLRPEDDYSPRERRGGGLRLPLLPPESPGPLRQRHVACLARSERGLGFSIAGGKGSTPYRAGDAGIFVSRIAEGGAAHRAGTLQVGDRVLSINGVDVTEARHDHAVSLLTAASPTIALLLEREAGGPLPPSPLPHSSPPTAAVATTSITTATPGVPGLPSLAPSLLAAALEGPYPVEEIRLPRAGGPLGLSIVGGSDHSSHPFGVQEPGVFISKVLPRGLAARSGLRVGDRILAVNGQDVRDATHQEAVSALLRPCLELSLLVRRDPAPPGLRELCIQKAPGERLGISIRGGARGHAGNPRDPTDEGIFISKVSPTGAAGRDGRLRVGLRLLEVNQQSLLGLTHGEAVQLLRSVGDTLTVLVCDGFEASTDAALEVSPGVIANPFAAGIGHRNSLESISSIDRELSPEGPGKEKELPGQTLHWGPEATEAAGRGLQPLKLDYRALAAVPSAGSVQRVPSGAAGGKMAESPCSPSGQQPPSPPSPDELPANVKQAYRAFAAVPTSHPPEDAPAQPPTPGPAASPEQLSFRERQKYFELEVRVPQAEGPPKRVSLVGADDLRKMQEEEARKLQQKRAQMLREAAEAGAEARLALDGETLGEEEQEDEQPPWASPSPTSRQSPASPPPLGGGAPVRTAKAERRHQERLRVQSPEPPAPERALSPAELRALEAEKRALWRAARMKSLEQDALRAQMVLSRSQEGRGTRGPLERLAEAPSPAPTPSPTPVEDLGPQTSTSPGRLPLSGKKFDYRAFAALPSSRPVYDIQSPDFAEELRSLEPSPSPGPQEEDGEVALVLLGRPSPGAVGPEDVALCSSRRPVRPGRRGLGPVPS

## CSCC[C@H](NC(=O)[C@H](C)NC(=O)[C@H](CCCNC(=N)N)NC(=O)CNC(=O)[C@@H](NC(=O)[C@H](Cc1c[nH]c2ccccc12)NC(=O)[C@H](CCCNC(=N)N)NC(=O)CNC(=O)CCCC[C@@H]1SC[C@@H]2NC(=O)N[C@@H]21)[C@@H](C)O)C(=O)N[C@@H](CO)C(=O)N[C@@H](C)C(=O)N[C@@H](Cc1c[nH]c2ccccc12)C(=O)N[C@@H](CCCCN)C(=O)N1CCC[C@H]1C(=O)N[C@H](C(=O)N[C@@H](CCCNC(=N)N)C(=O)N[C@@H](CCCNC(=N)N)C(=O)N[C@@H](CCC(=O)O)C(=O)N[C@H](C(=O)N[C@@H](CCC(=O)O)C(=O)N[C@H](C(=O)O)C(C)C)[C@@H](C)O)[C@@H](C)O [HPV E6 #35 (modified)] (Biotin-GRWTGRAMSAWKPTRRETEV-OH; C-terminus assumed)
[1]
  Classification: 5 (A450 nm of 4 more than 2× repeated)
[2]
  Classification: 1 (A450 nm 0-1)
[3]
  Classification: 5 (A450 nm of 4 more than 2× repeated)
[4]; PDZ PSD95, PDZ Domain 1
  Classification: 5 (A450 nm of 4 more than 2× repeated)
[4]; PDZ PSD95, PDZ Domain 1, 2, 3
  Classification: 5 (A450 nm of 4 more than 2× repeated)
[4]; PDZ PSD95, PDZ Domain 3
  Classification: 5 (A450 nm of 4 more than 2× repeated)
[5]; PDZ DLG1, PDZ Domain 1
  Classification: 5 (A450 nm of 4 more than 2× repeated)
[5]; PDZ DLG1, PDZ Domain 1, 2
  Classification: 5 (A450 nm of 4 more than 2× repeated)
[5]; PDZ DLG1, PDZ Domain 2
  Classification: 5 (A450 nm of 4 more than 2× repeated)
[5]; PDZ DLG1, PDZ Domain 3
  Classification: 3 (A450 nm 2-3)
[6]; PDZ KIAA0147, PDZ Domain 1
  Classification: 5 (A450 nm of 4 more than 2× repeated)
[6]; PDZ KIAA0147, PDZ Domain 2
  Classification: 5 (A450 nm of 4 more than 2× repeated)
[6]; PDZ KIAA0147, PDZ Domain 3
  Classification: 4 (A450 nm 3-4)
[6]; PDZ KIAA0147, PDZ Domain 4
  Classification: 1 (A450 nm 0-1)
[7]; PDZ DLG2, PDZ Domain 1
  Classification: 5 (A450 nm of 4 more than 2× repeated)
[7]; PDZ DLG2, PDZ Domain 2
  Classification: 5 (A450 nm of 4 more than 2× repeated)
[8]; PDZ Domain 3
  Classification: 1 (A450 nm 0-1)
[8]; PDZ Domain 5
  Classification: 1 (A450 nm 0-1)
[8]; PDZ Domain 8
  Classification: 4 (A450 nm 3-4)
[9]
  Classification: 2 (A450 nm 1-2)
[10]
  Kd: 350 nM
